Consider nine compounds from US20060281768A1, “THIENOPYRIMIDINE AND THIENOPYRIDINE KINASE MODULATORS” (priority 2005, published 2006).

Assay [1] relates to MV4-11 cells. Kind of assay: Growth inhibition of MV4-11 cells (CellTiterGlo). The note with it: Homo sapiens, 72 hours, uncertainty +20%. In kind it is cell-based. On the procedure:
FLT3 specific growth inhibition was measured in the leukemic cell line MV4-11 (ATCC Number: CRL-9591). […] MV4-11 cells cannot grow and survive without active FLT31TD.
To measure proliferation inhibition by test compounds the luciferase based CellTiterGlo reagent (Promega) was used. Cells are plated at 10,000 cells per well in 100ul of in RPMI media containing penn/strep, 10% FBS and lng/ml GM-CSF or 1 ng/ml IL-3 for MV4-11 and Baf3 cells respectively.
Compound dilutions or 0.1% DMSO (vehicle control) are added to cells and the cells are allowed to grow for 72 hours at standard cell growth conditions (37° C., 5% CO2). Total cell growth is quantified as the difference in luminescent counts (relative light units, RLU) of cell number at Day 0 compared to total cell number at Day 3 (72 hours of growth and/or compound treatment). One hundred percent inhibition of growth is defined as an RLU equivalent to the Day 0 reading. Zero percent inhibition is defined as the RLU signal for the DMSO vehicle control at Day 3 of growth. All data points are an average of triplicate samples. […] Inhibition and IC50 data analysis was done with GraphPad Prism using a non-linear regression fit with a multiparamater, sigmoidal dose-response (variable slope) equation.
MV-411 cells expressed the FLT3 internal tandem duplication mutation, and thus were entirely dependent upon FLT3 activity for growth. […] In contrast, the Baf3 cell proliferations is driven by the cytokine IL-3 and these cells are used as a non-specific toxicity control for test compounds.
In general terms: In ATP-based viability assays light output follows the ATP content of the culture.

Assay [2] addresses T1, wild-type FLT3 receptor (Homo sapiens, UniProt P36888).
T1 construct: host or cells: Baf3 (murine B cell lymphoma line)
T1 sequence (P36888 27-993): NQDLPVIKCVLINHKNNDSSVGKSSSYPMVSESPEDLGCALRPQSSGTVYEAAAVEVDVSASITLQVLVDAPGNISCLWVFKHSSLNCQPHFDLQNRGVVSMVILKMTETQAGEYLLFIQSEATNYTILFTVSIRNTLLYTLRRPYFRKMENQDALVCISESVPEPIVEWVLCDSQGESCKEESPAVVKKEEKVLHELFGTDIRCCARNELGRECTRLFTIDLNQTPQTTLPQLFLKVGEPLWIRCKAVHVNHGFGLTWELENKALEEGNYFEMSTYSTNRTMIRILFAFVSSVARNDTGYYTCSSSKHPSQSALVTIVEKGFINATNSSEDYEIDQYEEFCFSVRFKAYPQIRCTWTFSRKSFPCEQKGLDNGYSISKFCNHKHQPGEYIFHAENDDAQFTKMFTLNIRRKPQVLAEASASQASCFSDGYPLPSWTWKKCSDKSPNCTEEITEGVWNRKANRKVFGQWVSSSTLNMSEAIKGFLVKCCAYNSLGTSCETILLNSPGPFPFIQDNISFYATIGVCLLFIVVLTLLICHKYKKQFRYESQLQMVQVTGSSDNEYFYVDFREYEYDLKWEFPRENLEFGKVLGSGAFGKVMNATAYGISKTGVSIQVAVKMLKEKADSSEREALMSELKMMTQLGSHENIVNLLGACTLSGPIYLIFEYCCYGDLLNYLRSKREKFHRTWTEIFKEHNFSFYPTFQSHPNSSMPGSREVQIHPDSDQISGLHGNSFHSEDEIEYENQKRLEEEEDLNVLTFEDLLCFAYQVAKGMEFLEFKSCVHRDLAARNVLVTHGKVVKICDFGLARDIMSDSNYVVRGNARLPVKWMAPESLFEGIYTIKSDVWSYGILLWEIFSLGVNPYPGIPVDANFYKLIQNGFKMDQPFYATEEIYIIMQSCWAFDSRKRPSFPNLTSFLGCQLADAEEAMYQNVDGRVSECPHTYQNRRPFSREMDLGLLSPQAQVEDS
Description: Cell-Based FLT3 Receptor Elisa (Baf3 FLT3 cells, FLT3 phosphorylation). The note with it: Flt ligand stimulated FLT3 phosphorylation, 1 hour compound incubation, uncertainty +20%. On the procedure: Cells overexpressing the FLT3 receptor were obtained from Dr. Michael Heinrich (Oregon Health and Sciences University). The Baf3 FLT3 cell lines were created by stable transfection of parental Baf3 cells (a murine B cell lymphoma line dependent on the cytokine IL-3 for growth) with wild-type FLT3. Cells were selected for their ability to grow in the absence of IL-3 and in the presence of FLT3 ligand.
Baf3 cells were maintained in RPMI 1640 with 10%FCS, penn/strep and 10 ng/mL FLT ligand at 37° C., 5% CO2. To measure direct inhibition of the wild-type FLT3 receptor activity and phosphorylation a sandwich ELISA method was developed similar to those developed for other RTKs (3,4). 200ul of Baf3FLT3 cells (1×10^6/ml) were plated in 96 well dishes in RPM11640 with 0.5% serum and 0.01ng/ml IL-3 for 16 hours prior to 1 hour compound or DMSO vehicle incubation. Cells were treated with 100 ng/ml Flt ligand (R&D Systems Cat# 308-FK) for 10 min. at 37° C. Cells were pelleted, washed and lysed in 100ul HNTG buffer (50 mM Hepes, 150 mM NaCl, 10% Glycerol, 1% Triton -X-100, 10 mM NaF, 1 mM EDTA, 1.5 mM MgCl2, 10 mM NaPyrophosphate) supplemented with phosphatase (Sigma Cat# P2850) and protease inhibitors (Sigma Cat #P8340). Lysates were cleared by centrifugation at 1000×g for 5 minutes at 4° C. Cell lysates were transferred to white wall 96 well microtiter (Costar #9018) plates coated with 50ng/well anti-FLT3 antibody (Santa Cruz Cat# sc-480) and blocked with SeaBlock reagent (Pierce Cat#37527). Lysates were incubated at 4° C. for 2 hours. Plates were washed 3× with 200ul/well PBS/0.1% triton-X-100. Plates are then incubated with 1:8000 dilution of HRP-conjugated anti-phosphotyrosine antibody (Clone 4G10, Upstate Biotechnology Cat#16-105) for 1 hour at room temperature. Plates were washed 3× with 200ul/well PBS/0.1% triton-X-100. Signal detection with Super Signal Pico reagent (Pierce Cat#37070) was done according to manufacturer's instruction with a Berthold microplate luminometer. All data points are an average of triplicate samples. […] Inhibition and IC50 data analysis was done with GraphPad Prism using a non-linear regression fit with a multiparamater, sigmoidal dose-response (variable slope) equation.

For assay [3], the target named is T2, FLT3 571-993 (Homo sapiens, UniProt P36888).
T2 construct: 10 nM FLT3 571-993, 20 ug/mL poly Glu4Tyr
T2 sequence (P36888 571-993): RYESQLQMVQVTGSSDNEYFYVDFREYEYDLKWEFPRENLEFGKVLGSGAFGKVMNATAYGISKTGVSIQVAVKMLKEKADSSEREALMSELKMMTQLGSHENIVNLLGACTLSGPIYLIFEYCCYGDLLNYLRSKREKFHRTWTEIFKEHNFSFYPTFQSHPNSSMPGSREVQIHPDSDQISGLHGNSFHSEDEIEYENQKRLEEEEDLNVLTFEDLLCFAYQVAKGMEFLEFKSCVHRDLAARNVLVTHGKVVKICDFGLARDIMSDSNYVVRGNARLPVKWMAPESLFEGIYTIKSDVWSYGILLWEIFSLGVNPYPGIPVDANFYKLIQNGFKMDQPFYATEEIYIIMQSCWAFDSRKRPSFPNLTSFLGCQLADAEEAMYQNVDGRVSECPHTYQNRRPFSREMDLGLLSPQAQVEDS
Kind of assay: FLT3 Fluorescence Polarization Kinase Assay. In kind it is biochemical. The note with it: 10 nM FLT3 571-993, 150 uM ATP, 30 minutes; uncertainty +10%. On the procedure: The FLT3 FP assay utilizes the fluorescein-labeled phosphopeptide and the anti-phosphotyrosine antibody included in the Panvera Phospho-Tyrosine Kinase Kit (Green) supplied by Invitrogen. When FLT3 phosphorylates poly Glu4Tyr, the fluorescein-labeled phosphopeptide is displaced from the anti-phosphotyrosine antibody by the phosphorylated poly Glu4Tyr, thus decreasing the FP value. The FLT3 kinase reaction is incubated at room temperature for 30 minutes under the following conditions: 10 nM FLT3 571-993, 20 ug/mL poly Glu4Tyr, 150 uM ATP, 5mM MgCl2, 1% compound in DMSO. The kinase reaction is stopped with the addition of EDTA. The fluorescein-labeled phosphopeptide and the anti-phosphotyrosine antibody are added and incubated for 30 minutes at room temperature.
All data points are an average of triplicate samples. Inhibition and IC50 data analysis was done with GraphPad Prism using a non-linear regression fit with a multiparamater, sigmoidal dose-response (variable slope) equation.
In general terms: In fluorescence polarisation assays a small probe gives low polarisation when free and higher when bound to something large.

As a reminder, the IC50 is the concentration that inhibits the measured activity by half. For `O=C(Nc1ccc(OC2CCC2)nc1)NC1CCN(c2ncnc3ccsc23)C1` (stereo not drawn) [Compound 15, 1-(6-Cyclobutoxy-pyridin-3-yl)-3-(1-thieno [3,2-d]pyrimidin-4-yl-pyrrolidin-3-yl)-urea], the IC50 came to 983 nM in assay [1] and 1900 nM in assay [2].
In the case of `CC(C)c1ccc(NC(=O)OC2CCN(c3ncnc4ccsc34)C2)cc1` (stereo not drawn) [Compound 5, (4-Isopropyl-phenyl)-carbamic acid 1-thieno [3,2-d]pyrimidin-4-yl-pyrrolidin-3-yl ester], the IC50 in assay [3] turned out to be 64 nM; in assay [1], 1300 nM; in assay [2], 22 nM.
Regarding `CC(C)c1ccc(NC(=O)NC2CCN(c3ncnc4sccc34)C2)cc1` (stereo not drawn) [Compound 9, 1-(4-Isopropyl-phenyl)-3-(1-thieno [2,3-d]pyrimidin-4-yl-pyrrolidin-3-yl)-urea], the values for the IC50 in assay [3], in assay [1] and in assay [2] were 41 nM, 1300 nM and 55 nM, respectively.
For the compound `O=C(Nc1ccc(Oc2ccccc2)cc1)NC1CCN(c2ncnc3ccsc23)C1` (stereo not drawn) [Compound 13, 1-(4-Phenoxy-phenyl)-3-(1-thieno [3,2-d]pyrimidin-4-yl-pyrrolidin-3-yl)-urea], the IC50 in assay [1] was 881 nM; in assay [2], over 5000 nM.
With `CC(C)c1ccc(NC(=O)NC2CCN(c3ncnc4ccsc34)C2)cc1` (stereo not drawn) [Compound 11, 1-(4-Isopropyl-phenyl)-3-(1-thieno [3,2-d]pyrimidin-4-yl-pyrrolidin-3-yl)-urea], the IC50 in assay [3] came out at 77 nM; in assay [1], 671 nM; in assay [2], 108 nM.
For the compound `O=C(Nc1ccc(Oc2ccccc2)cc1)OC1CCN(c2ncnc3ccsc23)C1` (stereo not drawn) [Compound 26, (4-Phenoxy-phenyl)-carbamic acid 1-thieno[3,2-d]pyrimidin-4-yl-pyrrolidin-3-yl ester], the values for the IC50 in assay [1] and in assay [2] were 953 nM and 390 nM, respectively.
As to `CCN(CC)c1ccc(NC(=O)NC2CCN(c3ncnc4ccsc34)C2)cc1` (stereo not drawn) [Compound 18, 1-(4-Diethylamino-phenyl)-3-(1-thieno [3,2-d]pyrimidin-4-yl-pyrrolidin-3-yl)-urea], the concentration for half-maximal inhibition (IC50) in assay [1] is 757 nM; in assay [2] it was 895 nM.
In the case of `O=C(Nc1ccc(N2CCCC2)cc1)NC1CCN(c2ncnc3ccsc23)C1` (stereo not drawn) [Compound 19, 1-(4-Pyrrolidin-1-yl-phenyl)-3-(1-thieno [3,2-d]pyrimidin-4-yl-pyrrolidin-3-yl)-urea], the results for the IC50 in assay [1] and in assay [2] were 850 nM and 2900 nM, respectively.
The corresponding values for `O=C(Nc1ccc(OC2CCC2)nc1)OC1CCN(c2ncnc3ccsc23)C1` (stereo not drawn) [Compound 25, (6-Cyclobutoxy-pyridin-3-yl)-carbamic acid 1-thieno[3,2-d]pyrimidin-4-yl-pyrrolidin-3-yl ester] are 345 nM and 1600 nM.
